Laboratory results as given in patent US20230092389A1, “UNIT DOSES, AEROSOLS, KITS, AND METHODS FOR TREATING HEART CONDITIONS BY PULMONARY ADMINISTRATION” (InCarda Therapeutics, Inc., priority 2017, published 2023).
Values joined by “and” are separate entries in the source; they are usually repeats but may differ in a detail not shown here. Equal values may be shown once. Read-outs that look alike come from different tables or passages of the source.

Experiments:
[1] = test system: dogs with induced atrial fibrillation; assay type: in vivo, dog
Protocol: Atrial Fibrillation Model: A venous catheter was placed in a peripheral vessel (i.e., cephalic) for administration of anesthetic. […] Following induction, animals were endotracheally intubated and mechanically ventilated (˜12 breaths/minute with a tidal volume of 200-300 mL). Subsequently, a cut-down on a jugular vein permitted introduction of a pacing lead into the right atrium. Transthoracic electrodes forming ECG lead II were placed. For test/vehicle article delivery, a 4F catheter was introduced through the trachea and wedged into a small airway, and a venous catheter was placed in a peripheral vessel (i.e., cephalic). […] Approximately 5 min after administration of this parasympathomimetic was started; the following experiments were performed: […] Observations were made for up to 10 minutes. […] Vehicle was only water.

[2] = test system: healthy volunteers; assay: Phase 1 (FLE-001) pharmacodynamics, ECG intervals; assay type: in vivo, human; conditions: for magnitude of QRS prolongation: 1 min post-inhalation; for magnitude of QRS prolongation / maximal QRS interval prolongation: post-hoc population; for prolongation in PR interval duration: Cohort 3, 60 mg eTLD
Protocol: The ECG recordings included: 1) Continuous real-time ECG telemetry for observation of patient safety starting at 12 hours pre-dose and continuing for 12 hours post-dose, 2) 12-lead ECGs for immediate review by medical staff to ascertain the safety of the procedures and drug administration were recorded at pre-specified (or any time as needed) before dosing (pre-dose) and after dosing (post-dose), and 3) continuous 12-lead ECG (cECG, iCardiac Holter monitoring) was recorded for 24 hours, starting 1 hour prior to dosing and up to 24 hours post dosing.

[3] = test system: anesthetized Yorkshire pigs; assay: PD (hemodynamics, ECG intervals) after IV or IT in anesthetized pigs (Example 5); assay type: in vivo
Protocol: All catheters were positioned under fluoroscopic guidance. […] Data are reported as means±SEM. Statistical analyses were performed using the SAS system (9.4) to apply ANOVA with a post-hoc Dunnett's test. Statistical significance was assumed at p<0.05.

[4] = test system: pigs with induced atrial fibrillation; assay: ACh and burst-pacing induced AF duration, IT instillation, pigs (Example 5); assay type: in vivo, Yorkshire pigs; conditions: for AF duration, mean: n=3, no drug 11±0.6
Protocol: At one min after intrapericardial administration of ACh (1 ml of 100 mM), burst pacing was performed to initiate AF in the control cohort (FIG. 60). In the experimental cohort, after ACh and burst-pacing-induced AF, a stable period of 2 min of AF was allowed (FIG. 60). […] Table 12; FIG. 61).

[5] = test system: beagle dogs with induced AF; assay: Cardioversion of induced AF by IT or IV flecainide, anesthetized dogs (Example 7); assay type: in vivo; conditions: for Time to NSR, individual animals: cumulative dose 0.75-1.0 mg/kg, animals 001-006
Protocol: The study was carried out in anesthetized healthy adult beagle dogs with induced AF. Acute AF was induced using the combination of phenylephrine ([…]), to increase heterogeneity of atrial refractory periods via increased loading and through a baroreceptor-mediated increase in parasympathetic efferent activity, and right atrial burst pacing (40-50 Hz for ˜15 min). The AF induced using this method was, in general, stable for more than 30 mins.
The cardiac rhythm was monitored prior to, during AF, and up to 10 min post-dosing and/or until conversion to NSR.

[6] = male, Yorkshire, pig, in vivo, iv, 2 mg/kg
Protocol: The studies were carried out in male Yorkshire pigs (n=9) weighing 36±1.0 kg (mean±SEM). The pigs were pre-anesthetized with telazol (4.7 mg/kg, intramuscular) and subsequently further anesthetized using alpha-chloralose (80 mg/kg, IV bolus, followed by 24 mg/kg/h continuous IV infusion). The animals were intubated and ventilated at a constant rate of 12 breaths/min and tidal volume of 400 ml per stroke.
Simultaneous blood samples were drawn from the pigtail catheter positioned in the LV and from a catheter in the jugular vein.
The samples were centrifuged and frozen at −80° C. until drug level determination was performed using a bioanalytical assay method developed by Climax Laboratories, Inc.

[7] = beagle, dog, in vivo
Text: After induction of AF, animals were first given vehicle (0.9% NaCl, volume-matched) via IT installation.

Compound: O=C(NCC1CCCCN1)c1cc(OCC(F)(F)F)ccc1OCC(F)(F)F (centres unmarked) [flecainide]
- ECG trace: Afib conversion ([1]; 2 mg/kg (FIG. 12)): Afib converting as soon as dosing occurred
- ECG trace: Afib conversion ([1]; 4 mg/kg by intra-tracheal instillation (FIG. 11)): Afib converting into normal sinus rhythm
- ventricular rate ([1]; large pulmonary doses): slower ventricular rates
- effect on induced atrial fibrillation ([1]; pulmonary (IT) administration): rapidly converted the Atrial Fibrillation to normal sinus rhythm
- conversion of induced atrial fibrillation to normal sinus rhythm ([1]; pulmonary dose 2-4 mg/kg body weight): converted the induced atrial fibrillation to normal sinus rhythm
- cardiovascular effect when given by intratracheal instillation ([1]; summary of Example 2): clear cardiovascular effect
- magnitude of QRS prolongation ([2]; 20 mg eTLD): 3.0 ms
- magnitude of QRS prolongation ([2]; 40 mg eTLD): 8.2 ms
- magnitude of QRS prolongation ([2]; 60 mg eTLD): 16 ms
- difference of QRS interval duration from pre-dose baseline ([2]; 2 to 24 hours post-inhalation of 30 mg eTLD, baseline 78±2 msec): < 2 ms
- PR interval ([2]; 8 and 24 hours post-IV infusion): fully returned to pre-drug baseline
- QRS interval duration ([2]; 30 min after completion of inhalation, 20-60 mg eTLD): returned to near pre-dose levels
- PR interval longer than pre-drug baseline ([2]; 2 hours and beyond post-oral IH flecainide): approximately 2 msec
- PR interval ([2]; 2 hours and beyond post-oral IH flecainide, baseline 158.5 msec): 160 ms
- QRS interval duration longer than baseline ([2]; 2 hours following IV infusion, baseline 78±2 msec): 12.5 ms
- PR interval longer than pre-drug baseline ([2]; 2 hours post-IV infusion, baseline 161±3 msec): ~12 ms
- QRS interval duration longer than baseline ([2]; 24 hours following IV infusion): ~7 ms
- mean ΔPR ([2]; Cohort 1, 20 mg eTLD, 1 minute post-dosing): -6 ms
- mean ΔPR ([2]; Cohort 1, 20 mg eTLD, 3 minutes post-dosing): -4.5 ms
- mean ΔPR ([2]; Cohort 1, 20 mg eTLD, 10 minutes to 4 hours after dosing): smaller than −3.0 msec
- mean ΔQRS ([2]; Cohort 1, 20 mg eTLD, between 1 and 3 minutes after end of inhalation): small increase
- QRS duration ([2]; Cohort 2, 40 mg eTLD, between 1 and 3 minutes post-dosing): transient increase
- time of maximal increase in QRS interval duration ([2]; Cohort 2, 40 mg eTLD, majority of subjects): 1 min
- prolongation in PR interval duration ([2]; 1 to 5 min): ~5 ms
- prolongation in PR interval duration ([2]; 10 and 15 minutes): up to 12 msec
- non-specific intraventricular conduction delay ([2]; Cohort 5, IV infusion): 3 of 6 subjects
- maximal increase in QRS interval duration, mean (±SEM) ([2]; Cohort 5, IV infusion 2 mg/kg): 34.2 ± 2.4 ms
- duration of QRS widening ([2]; Cohort 5, inhalation): 15 to 30 min
- maximal increase in QRS interval duration, mean (±SEM) ([2]; Cohort 5, inhalation 30 mg eTLD): 12.4 ± 2.6 ms
- duration of QRS widening ([2]; Cohort 5, intravenous): > 60 min
- non-specific intraventricular conduction delay ([2]; Cohort 5, oral inhalation eTLD 30 mg): not observed
- duration of intraventricular conduction delay ([2]; IV 2 mg/kg, 10 min infusion (FIG. 34)): 5 to 10 min
- maximal PR interval prolongation ([2]; IV infusion 2 mg/kg): 25 ms
- T-wave morphology ([2]; IV infusion 2 mg/kg (FIG. 36)): T-wave notching
- lower plasma concentration by inhalation for QRS prolongation of magnitude achieved by IV (6.2/2.7) ([2]; Part B): 2.3 fold
- maximal QRS interval prolongation ([2]; eTLD 20 mg): 3.5±1.0
- smaller change in QRS interval duration, inhalation vs IV infusion ([2]; eTLD 30 mg vs ~150 mg IV): 2.7 fold
- maximal QRS interval prolongation ([2]; eTLD 40 mg): 10±1.5
- maximal QRS interval prolongation ([2]; eTLD 60 mg): 16±1.4
- PR interval ([2]; end of IV infusion 2 mg/kg, 164±1 msec 45 min prior): 187 ± 6 ms
- T-wave morphology ([2]; inhalation 20, 30, 40 mg eTLD): No changes
- lower plasma level following inhalation at similar ΔQRS ([2]; inhalation vs 5 min into IV infusion): 2.6 fold
- PR interval prolongation from start of inhalation ([2]; inhaled 30 mg eTLD, 5 min after completion of inhalation): 12 ms
- changes of PR interval duration ([2]; inhaled 20 or 40 mg eTLD): Minimal or no changes
- temporal relation between plasma concentration and ΔQRS ([2]; non-steady state, IV and inhalation): changes in QRS interval duration lag those of the peripheral venous concentrations
- maximal PR interval prolongation ([2]; oral inhalation 30 mg eTLD): 12 ms
- maximal decrease in QRS amplitude (average of several tracings) ([2]; subject R222, 40 mg eTLD): ~480 μV
- maximal increase in QRS duration (average of several tracings) ([2]; subject R222, 40 mg eTLD): ~9 ms
- increase in QRS duration (QRSd) ([2]; subject R222, 40 mg eTLD, 1 minute post-dosing): 10 ms
- decrease in amplitude of the R-wave (QRSa) ([2]; subject R222, 40 mg eTLD, 3 min post-dosing): 400 μV
- QRS duration ([3]; IT 0.75 mg/kg, 2 min, baseline 58±1.8 ms): 64 ± 1.6 ms
- QRS duration ([3]; IT 0.75 mg/kg, 5 min, baseline 58±1.8 ms): 65 ± 1.7 ms
- QRS duration ([3]; IT 0.75 mg/kg, 30 min): 58 ± 0.9 ms
- mean arterial pressure ([3]; IT 0.75 mg/kg, baseline 111±3.6 mmHg, p=0.9112): not significantly altered across 30 min
- heart rate ([3]; IT 0.75 mg/kg, baseline 111±6.4 bpm, p=0.9970): not significantly altered across 30 min
- PR interval ([3]; IT 0.75 mg/kg, baseline 130±5.3 ms, p=0.9351): not significantly changed across 30 min
- JTc interval ([3]; IT 0.75 mg/kg, baseline 354±12.0 ms, p=0.7605): not significantly changed across 30 min
- QTc interval ([3]; IT 0.75 mg/kg, baseline 435±12.9 ms, p=0.5505): not significantly changed across 30 min
- QRS duration ([3]; IT 1.5 mg/kg, 2 min, baseline 57±0.4 ms): 68 ± 1.9 ms
- QRS duration ([3]; IT 1.5 mg/kg, 5 min): 69 ± 2.2 ms
- QRS duration ([3]; IT 1.5 mg/kg, 10 min): 67 ± 1.7 ms
- QRS duration ([3]; IT 1.5 mg/kg, 15 min): 64 ± 1.3 ms
- QRS duration ([3]; IT 1.5 mg/kg, 30 min): 60 ± 0.9 ms
- mean arterial pressure ([3]; IT 1.5 mg/kg, baseline 108±9.4 mmHg, p=0.9894): not significantly altered across 30 min
- heart rate ([3]; IT 1.5 mg/kg, baseline 118±13.2 bpm, p=0.9999): not significantly altered across 30 min
- PR interval ([3]; IT 1.5 mg/kg, baseline 127±2.3 ms, p=0.0819): not significantly changed across 30 min
- JTc interval ([3]; IT 1.5 mg/kg, baseline 364±11.5 ms, p=0.9968): not significantly changed across 30 min
- QTc interval ([3]; IT 1.5 mg/kg, baseline 436±7.1 ms, p=0.1510): not significantly changed across 30 min
- heart rate ([3]; IV 2 mg/kg over 2 min, baseline 103±1.9 bpm, p=0.9936): not significantly altered across 30 min
- QRS duration ([3]; IV 2 mg/kg, 2 min, baseline 58±1.9 ms): 77 ± 6.2 ms
- QRS duration ([3]; IV 2 mg/kg, 5 min, baseline 58±1.9 ms): 76 ± 4.8 ms
- QRS duration ([3]; IV 2 mg/kg, 30 min): 59 ± 3.0 ms
- mean arterial pressure ([3]; IV 2 mg/kg, baseline 105±6.7 mmHg, p=0.8852): not significantly altered across 30 min
- PR interval ([3]; IV 2 mg/kg, baseline 127±7.8 ms, p=0.5161): not significantly changed across 30 min
- JTc interval ([3]; IV 2 mg/kg, baseline 367±7.4 ms, p=0.9686): not significantly changed across 30 min
- QTc interval ([3]; IV 2 mg/kg, baseline 442±7.9 ms, p=0.35): not significantly changed across 30 min
- recurrence of AF after restoration of sinus rhythm ([4]; 30-min window of observation): no recurrence of AF occurred
- reduction in AF duration from the untreated condition ([4]; IT 1.5 mg/kg): 73%
- AF duration, mean ([4]; IT 1.5 mg/kg): 3 ± 0.2 min
- AF duration, mean ([4]; IT 1.5 mg/kg, listed as Flecainide): 3 min
- AF duration, individual pigs ([4]; IT 1.5 mg/kg, pigs 239, 236, 238, no drug 12, 10, 12): 3 min (2×) and 4 min
- effects in BP, VR and LV dP/dtmax upon conversion, IV vs IT ([5]; FIG. 69): Flecainide given IV caused greater effects
- dogs converted from AF to NSR ([5]; IT): 6/6
- representative ECG: conversion of AF to NSR ([5]; IT 0.75 mg/kg (FIGS. 68A-D)): conversion of AF to NSR
- Time to NSR, individual animals ([5]; IT, cumulative IT dose 0.75 mg/kg): 12 s and 23 s and 62 s
- Time to NSR, individual animals ([5]; IT, cumulative IT dose 0.75 (0.25 + 0.5) mg/kg): 147 s and 52 s
- Time to NSR, individual animals ([5]; IT, cumulative IT dose 1.0 (0.75 + 0.25) mg/kg): 83 s
- Time to NSR, Mean ± SEM ([5]; IT, mean dose 0.79 ± 0.04 mg/kg, 6 dogs, 0.04 mg/kg): 63 ± 18 s
- dogs converted from AF to NSR ([5]; IV bolus): 2/2
- time to conversion of AF to NSR ([5]; IV bolus): 29 s
- sufficiency of LV (left atrium) levels to terminate AF ([5]; pulmonary delivery): sufficient to rapidly terminate AF
- time of peak LV and venous plasma levels [6]: 2 min
- Plasma Concentration LV at time of conversion, Mean ± SEM [7]: 1139 ± 380 ng/mL
- Plasma Concentration Venous at time of conversion, Mean ± SEM [7]: 611 ± 213 ng/mL
- plasma concentrations transiently higher in LV than in PA (summary) [7]: ~2.5 fold
- plasma levels higher in LV than in systemic venous circulation [7]: ~2 fold
- plasma concentrations transiently higher in PA than in LV (summary) ([7]; iv): ~3.5 fold
- time after administration when LV and PA concentrations were nearly equal ([7]; iv): 4 to 10 min
